≈ marks a conversion by molar mass, not a printed value.
Experiments:
Assay type in all cases: cell-based
Cryptococcus gattii = experiment: In vitro antifungal assay (Example IX), microdilution broth, MIC; settings: minimum inhibitory concentration (≥50% inhibition), 35° C., 72 h (Cryptococcus), RPMI1640
In short: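 Broth microdilution in RPMI1640 with 2.5×10^3 cells/mL inoculum; final compound concentrations were 2–0.0019 μg/mL, with 1% DMSO. Cryptococcus plates were incubated at 35 °C for 72 h, and growth was read at 600 nm to give the MIC.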

[1] = tested on: Rhizomucor pusillus 46342; experiment: In vitro antifungal assay (Example IX), microdilution broth, MEC; settings: minimum effective concentration (shortening of hyphae), 35° C., 40-48 h, RPMI1640
In short: (§1)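 Spore suspensions of A. fumigatus and R. pusillus adjusted to 1-2×10^4 spores/mL in RPMI1640 and exposed to compound dilutions prepared in DMSO, by broth microdilution. MEC taken as the lowest concentration shortening hyphae versus DMSO control wells, read as for echinocandins.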

[2] = tested on: Aspergillus fumigatus MYA3626; experiment: as above; settings: minimum effective concentration (shortening of hyphae), 35° C., 40-48 h, RPMI1640
In short: as §1

[3] = tested on: Cryptococcus neoformans H99; experiment: In vitro antifungal assay (Example IX), microdilution broth, MIC; settings: minimum inhibitory concentration (≥50% inhibition), 35° C., 72 h, RPMI1640
In short: (§2)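 CLSI broth microdilution in RPMI1640 with 2.5×10^3 cells/mL and final compound concentrations of 2-0.0019 μg/mL (1% DMSO). C. albicans 90028 plates were incubated at 35° C. for 40-48 h and C. neoformans H99 for 72 h. MIC was read as minimum inhibitory concentration, verified at 600 nm.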

Candida albicans 90028 = experiment: as above; settings: minimum inhibitory concentration (≥50% inhibition), 35° C., 40-48 h, RPMI1640
In short: as §2

Structure (SMILES) | MIC (Cryptococcus gattii) [µg/mL] | MIC [3] [µg/mL] | MIC (Candida albicans 90028) [µg/mL] | minimal effective concentration [1] [µg/mL] | minimal effective concentration [2] [µg/mL]
Nc1ncccc1-c1cc(Cc2ccc(OCc3ccccc3F)nc2)no1 [compound 127, 3-(3-((6-((2-fluorobenzyl)oxy)pyridin-3-yl)methyl)isoxazol-5-yl)pyridin-2-amine] | 0.01 to 0.1 (≈ 0.0266 to 0.266 µM) | 0.01 to 0.1 (≈ 0.0266 to 0.266 µM) | 0.01 to 0.1 (≈ 0.0266 to 0.266 µM) | 0.1 to 1 | ≤ 0.01
Nc1ncccc1-c1cc(Cc2ccc(Oc3cccc(F)c3)nc2)no1 [compound 130, 3-(3-((6-(3-fluorophenoxy)pyridin-3-yl)methyl)isoxazol-5-yl)pyridin-2-amine] | 0.01 to 0.1 (≈ 0.0276 to 0.276 µM) | ≤ 0.01 | 0.01 to 0.1 (≈ 0.0276 to 0.276 µM) | 0.1 to 1 | 0.01 to 0.1
Nc1ncccc1-c1cc(Cc2ccc(Oc3ccccc3F)nc2)no1 [compound 131, 3-(3-((6-(2-fluorophenoxy)pyridin-3-yl)methyl)isoxazol-5-yl)pyridin-2-amine] | 0.01 to 0.1 (≈ 0.0276 to 0.276 µM) | 0.01 to 0.1 (≈ 0.0276 to 0.276 µM) | 0.01 to 0.1 (≈ 0.0276 to 0.276 µM) | 0.1 to 1 | 0.01 to 0.1
Nc1ccc(-c2cc(Cc3ccc(Oc4cccc(F)n4)cc3)no2)c(N)n1 [compound 134, 3-(3-(4-((6-fluoropyridin-2-yl)oxy)benzyl)isoxazol-5-yl)pyridine-2,6-diamine] | 0.01 to 0.1 (≈ 0.0265 to 0.265 µM) | 0.01 to 0.1 (≈ 0.0265 to 0.265 µM) | 0.1 to 1 (≈ 0.265 to 2.65 µM) | 0.1 to 1 | 0.1 to 1
Nc1ccc(-c2cc(Cc3ccc(CNc4ccccc4)cc3)no2)c(N)n1 [compound 136, 3-(3-(4-((phenylamino)methyl)benzyl)isoxazol-5-yl)pyridine-2,6-diamine] | 0.1 to 1 (≈ 0.269 to 2.69 µM) | 0.1 to 1 (≈ 0.269 to 2.69 µM) | 0.1 to 1 (≈ 0.269 to 2.69 µM) | 0.01 to 0.1 | 0.01 to 0.1
Nc1ncccc1-c1cc(Cc2ccc(OCc3ccc(F)cc3)nc2)no1 [compound 187, 3-(3-((6-((4-fluorobenzyl)oxy)pyridin-3-yl)methyl)isoxazol-5-yl)pyridin-2-amine] | 0.01 to 0.1 (≈ 0.0266 to 0.266 µM) | 0.1 to 1 (≈ 0.266 to 2.66 µM) | 0.1 to 1 (≈ 0.266 to 2.66 µM) | 0.1 to 1 | 0.1 to 1
Nc1ncccc1-c1cc(Cc2ccc(COc3cc(F)cc(F)c3F)cc2)no1 [compound 190, 3-(3-(4-((2,3,5-trifluorophenoxy)methyl)benzyl)isoxazol-5-yl)pyridin-2-amine] | 0.1 to 1 (≈ 0.243 to 2.43 µM) | 0.1 to 1 (≈ 0.243 to 2.43 µM) | 0.1 to 1 (≈ 0.243 to 2.43 µM) | > 1 | 0.1 to 1
Nc1ncccc1-c1cc(Cc2ccc(CNc3ccc(F)c(F)c3F)cc2)no1 [compound 193, 3-(3-(4-(((2,3,4-trifluorophenyl)amino)methyl)benzyl)isoxazol-5-yl)pyridin-2-amine] | 0.1 to 1 (≈ 0.244 to 2.44 µM) | 0.1 to 1 (≈ 0.244 to 2.44 µM) | 0.1 to 1 (≈ 0.244 to 2.44 µM) | 0.1 to 1 | 0.01 to 0.1
Nc1ncccc1-c1cc(Cc2ccc(CNc3cc(F)ccc3F)cc2)no1 [compound 196, 3-(3-(4-(((2,5-difluorophenyl)amino)methyl)benzyl)isoxazol-5-yl)pyridin-2-amine] | 0.1 to 1 (≈ 0.255 to 2.55 µM) | 0.01 to 0.1 (≈ 0.0255 to 0.255 µM) | 0.01 to 0.1 (≈ 0.0255 to 0.255 µM) | 0.1 to 1 | 0.1 to 1
COc1c(F)cc(F)cc1NCc1ccc(Cc2cc(-c3cccnc3N)on2)cc1 [compound 198, 3-(3-(4-(((3,5-difluoro-2-methoxyphenyl)amino)methyl)benzyl)isoxazol-5-yl)pyridin-2-amine] | > 1 | 0.1 to 1 (≈ 0.237 to 2.37 µM) | 0.1 to 1 (≈ 0.237 to 2.37 µM) | 0.1 to 1 | > 1
Nc1ncccc1-c1cc(Cc2ccc(Cn3cncn3)cc2)no1 [compound 199, 3-(3-(4-((1H-1,2,4-triazol-1-yl)methyl)benzyl)isoxazol-5-yl)pyridin-2-amine] | > 1 | > 1 | > 1 | > 1 | > 1
COc1cc(F)cc(NCc2ccc(Cc3cc(-c4cccnc4N)on3)cc2)c1 [compound 201, 3-(3-(4-(((3-fluoro-5-methoxyphenyl)amino)methyl)benzyl)isoxazol-5-yl)pyridin-2-amine] | > 1 | 0.1 to 1 (≈ 0.247 to 2.47 µM) | 0.1 to 1 (≈ 0.247 to 2.47 µM) | > 1 | 0.1 to 1

Further lines, with some results ahead:

MIC (Cryptococcus gattii) [µg/mL] | MIC [3] [µg/mL] | MIC (Candida albicans 90028) [µg/mL] | Structure (SMILES) | minimal effective concentration [1] [µg/mL] | minimal effective concentration [2] [µg/mL]
0.01 to 0.1 (≈ 0.029 to 0.29 µM) | 0.01 to 0.1 (≈ 0.029 to 0.29 µM) | ≤ 0.01 | Cc1ccc(Cc2ccc(Cc3cc(-c4cccnc4N)on3)cc2)o1 [compound 122, 3-(3-(4-((5-methylfuran-2-yl)methyl)benzyl)isoxazol-5-yl)pyridin-2-amine] | 0.01 to 0.1 | ≤ 0.01
0.01 to 0.1 (≈ 0.03 to 0.3 µM) | 0.1 to 1 (≈ 0.3 to 3 µM) | 0.01 to 0.1 (≈ 0.03 to 0.3 µM) | Nc1ncccc1-c1cc(Cc2ccc(CC3=CCOC3)cc2)no1 [compound 123, 3-(3-(4-((2,5-dihydrofuran-3-yl)methyl)benzyl)isoxazol-5-yl)pyridin-2-amine] | > 1 | 0.01 to 0.1
0.01 to 0.1 (≈ 0.0286 to 0.286 µM) | 0.01 to 0.1 (≈ 0.0286 to 0.286 µM) | 0.01 to 0.1 (≈ 0.0286 to 0.286 µM) | Nc1ncccc1-c1cc(Cc2ccc(Cc3ccc(F)o3)cc2)no1 [compound 124, 3-(3-(4-((5-fluorofuran-2-yl)methyl)benzyl)isoxazol-5-yl)pyridin-2-amine] | 0.01 to 0.1 | 0.01 to 0.1
> 1 | > 1 | 0.1 to 1 (≈ 0.266 to 2.66 µM) | Nc1ncccc1-c1cc(Cc2cnc(SCc3ccccc3)nc2)no1 [compound 125, 3-(3-((2-(benzylthio)pyrimidin-5-yl)methyl)isoxazol-5-yl)pyridin-2-amine] | > 1 | 0.1 to 1
0.01 to 0.1 (≈ 0.0269 to 0.269 µM) | 0.01 to 0.1 (≈ 0.0269 to 0.269 µM) | 0.01 to 0.1 (≈ 0.0269 to 0.269 µM) | Nc1ccc(-c2cc(Cc3ccc(OCc4ccccc4)cc3)no2)c(N)n1 [compound 132, 3-(3-(4-(benzyloxy)benzyl)isoxazol-5-yl)pyridine-2,6-diamine] | 0.1 to 1 | ≤ 0.01
0.1 to 1 (≈ 0.285 to 2.85 µM) | 0.01 to 0.1 (≈ 0.0285 to 0.285 µM) | 0.1 to 1 (≈ 0.285 to 2.85 µM) | CC(C)=CCOc1ccc(Cc2cc(-c3ccc(N)nc3N)on2)cc1 [compound 135, 3-(3-(4-((3-methylbut-2-en-1-yl)oxy)benzyl)isoxazol-5-yl)pyridine-2,6-diamine] | 0.1 to 1 | 0.01 to 0.1
0.01 to 0.1 (≈ 0.0266 to 0.266 µM) | 0.1 to 1 (≈ 0.266 to 2.66 µM) | 0.01 to 0.1 (≈ 0.0266 to 0.266 µM) | Nc1ncccc1-c1cc(Cc2ccc(COc3cccc(F)n3)cc2)no1 [compound 137, 3-(3-(4-(((6-fluoropyridin-2-yl)oxy)methyl)benzyl)isoxazol-5-yl)pyridin-2-amine] | > 1 | 0.01 to 0.1
0.01 to 0.1 (≈ 0.0277 to 0.277 µM) | 0.1 to 1 (≈ 0.277 to 2.77 µM) | 0.01 to 0.1 (≈ 0.0277 to 0.277 µM) | Nc1ncccc1-c1cc(Cc2ccc(Sc3ccccc3)nc2)no1 [compound 186, 3-(3-((6-(phenylthio)pyridin-3-yl)methyl)isoxazol-5-yl)pyridin-2-amine] | > 1 | 0.01 to 0.1
> 1 | > 1 | > 1 | Nc1ncccc1-c1cc(Cc2ccc(N3CCC3c3ccccc3)nc2)no1 (stereo not shown) [compound 188, 3-(3-((6-(2-phenylazetidin-1-yl)pyridin-3-yl)methyl)isoxazol-5-yl)pyridin-2-amine] | 0.1 to 1 | > 1
0.1 to 1 (≈ 0.254 to 2.54 µM) | 0.01 to 0.1 (≈ 0.0254 to 0.254 µM) | 0.01 to 0.1 (≈ 0.0254 to 0.254 µM) | Nc1ncccc1-c1cc(Cc2ccc(COc3cc(F)ccc3F)cc2)no1 [compound 189, 3-(3-(4-((2,5-difluorophenoxy)methyl)benzyl)isoxazol-5-yl)pyridin-2-amine] | > 1 | 0.01 to 0.1
0.1 to 1 (≈ 0.281 to 2.81 µM) | 0.1 to 1 (≈ 0.281 to 2.81 µM) | 0.1 to 1 (≈ 0.281 to 2.81 µM) | Nc1ncccc1-c1cc(Cc2ccc(C(=O)c3ccccc3)cc2)no1 [compound 191, (4-((5-(2-aminopyridin-3-yl)isoxazol-3-yl)methyl)phenyl)(phenyl)methanone] | 0.1 to 1 | 0.01 to 0.1
0.01 to 0.1 (≈ 0.0228 to 0.228 µM) | 0.01 to 0.1 (≈ 0.0228 to 0.228 µM) | 0.1 to 1 (≈ 0.228 to 2.28 µM) | Nc1ncccc1-c1cc(Cc2ccc(OCc3ccnc(Br)c3)nc2)no1 [compound 195, 3-(3-((6-((2-bromopyridin-4-yl)methoxy)pyridin-3-yl)methyl)isoxazol-5-yl)pyridin-2-amine] | > 1 | 0.1 to 1
> 1 | > 1 | > 1 | Nc1ncccc1-c1cc(Cc2ccc(Cn3cnnc3)cc2)no1 [compound 200, 3-(3-(4-((4H-1,2,4-triazol-4-yl)methyl)benzyl)isoxazol-5-yl)pyridin-2-amine] | > 1 | > 1
> 1 | > 1 | > 1 | Nc1ncccc1-c1cc(Cc2ccc(OCCn3cncn3)nc2)no1 [compound 202, 3-(3-((6-(2-(1H-1,2,4-triazol-1-yl)ethoxy)pyridin-3-yl)methyl)isoxazol-5-yl)pyridin-2-amine] | > 1 | > 1

Reference: patent publication US11512079B2, “Heterocycle substituted pyridine derivative antifungal agents” (Amplyx Pharmaceuticals, Inc., priority 2017, dated 2022)
